Laboratory results as given in patent US7531646B2, “β-D-ribosidase activity indicators with a chromogenic substrate” (priority 2001, dated 2009).

Legend:
Hafnia alvei = test: Substrate hydrolysis on Columbia agar; format: cell-based; settings: 300 mg/l, 18 hours
C. freundii = test: Substrate hydrolysis on Columbia agar; format: cell-based; settings: 300 mg/l, 18 hours
C. diversus = test: Substrate hydrolysis on Columbia agar; format: cell-based; settings: 300 mg/l, 18 hours
Serratia spp. = test: Substrate hydrolysis on Columbia agar; format: cell-based; settings: 300 mg/l, 18 hours
E. aerogenes = test: Substrate hydrolysis on Columbia agar; format: cell-based; settings: 300 mg/l, 18 hours
A. lwoffii = test: Substrate hydrolysis on Columbia agar; format: cell-based; settings: A. lwoffii ATCC 15309; 300 mg/l; 18 hours
M. morganii = test: Substrate hydrolysis on Columbia agar; format: cell-based; settings: 300 mg/l, 18 hours
[1] = test system: Providencia alcalifaciens; test: Substrate hydrolysis on Columbia agar; format: cell-based; settings: 300 mg/l, 18 hours
P. mirabilis = test: Substrate hydrolysis on Columbia agar; format: cell-based; settings: 300 mg/l, 18 hours
P. vulgaris = test: Substrate hydrolysis on Columbia agar; format: cell-based; settings: 300 mg/l, 18 hours
Vibrio parahaemolyticus = test: Substrate hydrolysis on Columbia agar; format: cell-based; settings: 300 mg/l, 18 hours
Vibrio cholerae = test: Substrate hydrolysis on Columbia agar; format: cell-based; settings: 300 mg/l, 18 hours
Salmonella motevideo = test: Substrate hydrolysis on Columbia agar; format: cell-based; settings: Salmonella motevideo SAX 55; 300 mg/l; 18 hours
From the text: This was achieved using a densitometer.
The same method was used as in Example 1.

Streptococcus oralis = test: Substrate hydrolysis on Columbia agar; format: cell-based; settings: Streptococcus oralis NCTC11427; 300 mg/l; 18 hours
[2] = test system: Streptococcus constellatus; test: Substrate hydrolysis on Columbia agar; format: cell-based; settings: Streptococcus constellatus NCTC 11325; 300 mg/l; 18 hours
Streptococcus gordonii = test: Substrate hydrolysis on Columbia agar; format: cell-based; settings: Streptococcus gordonii NCTC 7865; 300 mg/l; 18 hours
Streptococcus pneumoniae = test: Substrate hydrolysis on Columbia agar; format: cell-based; settings: Streptococcus pneumoniae NCTC 7465; 300 mg/l; 18 hours
[3] = test system: Haemolytic streptococcus A; test: Substrate hydrolysis on Columbia agar; format: cell-based; settings: 300 mg/l, 18 hours
[4] = test system: Haemolytic streptococcus G; test: Substrate hydrolysis on Columbia agar; format: cell-based; settings: 300 mg/l, 18 hours
Listeria seerigeri = test: Substrate hydrolysis on Columbia agar; format: cell-based; settings: Listeria seerigeri PHLS wild; 300 mg/l; 18 hours
Listeria ivanovii = test: Substrate hydrolysis on Columbia agar; format: cell-based; settings: Listeria ivanovii PHLS wild; 300 mg/l; 18 hours
[5] = test system: Arcanobacterium haemolyticus; test: Substrate hydrolysis on Columbia agar; format: cell-based; settings: Arcanobacterium haemolyticus NCTC 52; 300 mg/l; 18 hours
C. diphtheriae = test: Substrate hydrolysis on Columbia agar; format: cell-based, Corynebacterium diphtheriae; settings: 300 mg/l, 18 hours
[6] = test system: Staphylococcus haemolyticus; test: Substrate hydrolysis on Columbia agar; format: cell-based; settings: 300 mg/l, 18 hours
Enterococcus raffinosis = test: Substrate hydrolysis on Columbia agar; format: cell-based; settings: Enterococcus raffinosis NCTC 13192; 300 mg/l; 18 hours
Enterococcus mundtii = test: Substrate hydrolysis on Columbia agar; format: cell-based; settings: Enterococcus mundtii NCTC 12363; 300 mg/l; 18 hours
Enterococcus faecium = test: Substrate hydrolysis on Columbia agar; format: cell-based; settings: 300 mg/l, 18 hours
Gram negative bacteria = test: Substrate hydrolysis on Columbia agar, summary of screen; format: cell-based

3′,4′-dihydroxyflavone-4′-β-D-glucopyranoside sodium salt [DHF-glucoside]
Hydrolysis by Gram negative bacteria (Hafnia alvei; Hafnia alvei HAL 2): − | Hydrolysis by Gram negative bacteria (Hafnia alvei; Hafnia alvei NCTC 8105): − | Hydrolysis by Gram negative bacteria (C. freundii; C. freundii CFR 1): + | Hydrolysis by Gram negative bacteria (C. freundii; C. freundii CFR 2): − | Hydrolysis by Gram negative bacteria (C. freundii; C. freundii CFR 3): − | Hydrolysis by Gram negative bacteria (C. freundii; C. freundii CFR 4): + | Hydrolysis by Gram negative bacteria (C. freundii; C. freundii NCTC 9750): + | Hydrolysis by Gram negative bacteria (C. diversus; C. diversus CDI 1): − | Hydrolysis by Gram negative bacteria (C. diversus; C. diversus CDI 2): − | Hydrolysis by Gram negative bacteria (Serratia spp.; Serratia spp. SEX 1): + | Hydrolysis by Gram negative bacteria (Serratia spp.; Serratia spp. SEX 2): + | Hydrolysis by Gram negative bacteria (E. aerogenes; E. aerogenes EAE 1): + | Hydrolysis by Gram negative bacteria (E. aerogenes; E. aerogenes NCIMB 10102): + | Hydrolysis by Gram negative bacteria (A. lwoffii): − | Hydrolysis by Gram negative bacteria (M. morganii; M. morganii MMO 1): + | Hydrolysis by Gram negative bacteria (M. morganii; M. morganii MMO 2): + | Hydrolysis by Gram negative bacteria (M. morganii; M. morganii NCTC 235): − | Hydrolysis by Gram negative bacteria ([1]; Providencia alcalifaciens PAL 1): + | Hydrolysis by Gram negative bacteria ([1]; Providencia alcalifaciens PAL 2): + | Hydrolysis by Gram negative bacteria (P. mirabilis; P. mirabilis NCTC 10975): − | Hydrolysis by Gram negative bacteria (P. mirabilis; P. mirabilis PMI 1): − | Hydrolysis by Gram negative bacteria (P. mirabilis; P. mirabilis PMI 2): − | Hydrolysis by Gram negative bacteria (P. vulgaris; P. vulgaris PVU 2): − | Hydrolysis by Gram negative bacteria (P. vulgaris; P. vulgaris PVU 4): − | Hydrolysis by Gram negative bacteria (P. vulgaris; P. vulgaris PVU 5): − | Hydrolysis by Gram negative bacteria (Vibrio parahaemolyticus; Vibrio parahaemolyticus NCTC 10441): − | Hydrolysis by Gram negative bacteria (Vibrio parahaemolyticus; Vibrio parahaemolyticus NCTC 10884): − | Hydrolysis by Gram negative bacteria (Vibrio parahaemolyticus; Vibrio parahaemolyticus NCTC 10903): − | Hydrolysis by Gram negative bacteria (Vibrio parahaemolyticus; Vibrio parahaemolyticus NCTC 11344): − | Hydrolysis by Gram negative bacteria (Vibrio parahaemolyticus; Vibrio parahaemolyticus NCTC 12205): − | Hydrolysis by Gram negative bacteria (Vibrio cholerae; Vibrio cholera NCTC 6585): − | Hydrolysis by Gram negative bacteria (Vibrio cholerae; Vibrio cholera NCTC 7270): − | Hydrolysis by Gram negative bacteria (Vibrio cholerae; Vibrio cholera NCTC 8021): − | Hydrolysis by Gram negative bacteria (Vibrio cholerae; Vibrio cholera NCTC 10732): − | Hydrolysis by Gram negative bacteria (Vibrio cholerae; Vibrio cholera NCTC 12945): − | Hydrolysis by Gram negative bacteria (Vibrio cholerae; Vibrio cholerae NCTC 7254): − | Hydrolysis by Gram negative bacteria (Vibrio cholerae; Vibrio cholerae NCTC 8042): − | Hydrolysis by Gram negative bacteria (Vibrio cholerae; Vibrio cholerae NCTC 10255): − | Hydrolysis by Gram negative bacteria (Vibrio cholerae; Vibrio cholerae NCTC 10954): − | Hydrolysis by Gram negative bacteria (Salmonella motevideo): − | Hydrolysis by Gram positive organisms (Streptococcus oralis): − | Hydrolysis by Gram positive organisms [2]: − | Hydrolysis by Gram positive organisms (Streptococcus gordonii): − | Hydrolysis by Gram positive organisms (Streptococcus pneumoniae): − | Hydrolysis by Gram positive organisms ([3]; Haemolytic streptococcus A 1): − | Hydrolysis by Gram positive organisms ([3]; Haemolytic streptococcus A 2): − | Hydrolysis by Gram positive organisms ([3]; Haemolytic streptococcus A 3): − | Hydrolysis by Gram positive organisms ([4]; Haemolytic streptococcus G 1): − | Hydrolysis by Gram positive organisms ([4]; Haemolytic streptococcus G 2): − | Hydrolysis by Gram positive organisms ([4]; Haemolytic streptococcus G 3): − | Hydrolysis by Gram positive organisms (Listeria seerigeri): ++ | Hydrolysis by Gram positive organisms (Listeria ivanovii): ++ | Hydrolysis by Gram positive organisms [5]: − | Hydrolysis by Gram positive organisms (C. diphtheriae; C. diphtheriae NCTC 3987): − | Hydrolysis by Gram positive organisms (C. diphtheriae; C. diphtheriae NCTC 10356): − | Hydrolysis by Gram positive organisms (C. diphtheriae; C. diphtheriae NCTC 11397): − | Hydrolysis by Gram positive organisms (C. diphtheriae; Corynebacterium diphtheria NEQAS): − | Hydrolysis by Gram positive organisms ([6]; Staphylococcus haemolyticus RB 66): − | Hydrolysis by Gram positive organisms ([6]; Staphylococcus haemolyticus RB 67): − | Hydrolysis by Gram positive organisms ([6]; Staphylococcus haemolyticus RB 68): − | Hydrolysis by Gram positive organisms ([6]; Staphylococcus haemolyticus RB 69): − | Hydrolysis by Gram positive organisms ([6]; Staphylococcus haemolyticus RB 70): − | Hydrolysis by Gram positive organisms (Enterococcus raffinosis): ++ | Hydrolysis by Gram positive organisms (Enterococcus mundtii): ++ | Hydrolysis by Gram positive organisms (Enterococcus faecium; Enterococcus faecium 1): ++ | Hydrolysis by Gram positive organisms (Enterococcus faecium; Enterococcus faecium 2): ++ | Hydrolysis by Gram positive organisms (Enterococcus faecium; Enterococcus faecium 3): ++ | Hydrolysis by Gram positive organisms (Enterococcus faecium; Enterococcus faecium 4): ++ | Hydrolysis by Gram positive organisms (Enterococcus faecium; Enterococcus faecium 5): ++ | Hydrolysis by Gram positive organisms (Enterococcus faecium; Enterococcus faecium 6): ++ | Hydrolysis by Gram positive organisms (Enterococcus faecium; Enterococcus faecium 7): ++ | Hydrolysis by Gram positive organisms (Enterococcus faecium; Enterococcus faecium 121285 - wild ′99): ++ | strains known to be producers of β-glucosidase which did not appear to hydrolyse the substrate (Gram negative bacteria; of 120 Gram negative bacteria tested): 11 strains | Gram negative bacteria tested that hydrolysed the substrate (Gram negative bacteria; of 120 Gram negative bacteria tested, 300 mg/l, 18 hours): 20% | colouration and diffusion of positive strains (Gram negative bacteria; positive Gram negative strains, agar): brown/black colouration which showed no diffusion in agar
